From patent US20240226343A1, “NEUROPEPTIDE Y1 RECEPTOR (NPY1R) TARGETED THERAPEUTICS AND USES THEREOF” (RADIONETICS ONCOLOGY, INC., priority 2022, published 2024) come the findings set out here.

pKi: −log10 of the molar value.

Usually pKi stands for −log10 of the Ki, conventionally taken in molar units.

The target of the first assay is T1, hNPY1R (Homo sapiens, UniProt P25929).
T1 construct: SK-N-MC cells endogenously expressing the NPY1R receptor; endogenous in cells; host or cells: SK-N-MC cells (crude membrane fractions)
T1 sequence (P25929 1-384): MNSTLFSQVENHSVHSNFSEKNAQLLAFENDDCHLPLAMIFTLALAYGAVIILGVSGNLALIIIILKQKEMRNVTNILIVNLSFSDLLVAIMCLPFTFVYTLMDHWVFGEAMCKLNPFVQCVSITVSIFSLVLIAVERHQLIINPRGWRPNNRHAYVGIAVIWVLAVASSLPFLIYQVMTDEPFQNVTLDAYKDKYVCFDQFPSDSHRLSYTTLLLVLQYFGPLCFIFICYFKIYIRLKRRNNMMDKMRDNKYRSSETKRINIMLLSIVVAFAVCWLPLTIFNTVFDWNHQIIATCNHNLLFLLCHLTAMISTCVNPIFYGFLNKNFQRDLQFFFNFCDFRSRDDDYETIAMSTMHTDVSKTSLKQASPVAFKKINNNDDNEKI
Kind of assay: NPY1R binding assay: SK-N-MC membranes, [125I]-Peptide YY (human) competition. The conditions noted are these: data obtained after 60 minutes at 37° C.; SK-N-MC membranes; [125I]-Peptide YY 0.05 nM; read-out: hNPY1R binding Ki* †. Here is the method:
Crude membrane fractions are prepared from SK-N-MC cells endogenously expressing the NPY1R receptor. The cells are grown to 85-100% confluence on standard tissue culture dishes in Eagle's Minimum Essential Medium supplemented with 10% dialyzed FBS. To prepare membranes, cells are scraped and collected in 1× Dulbecco's phosphate buffered saline and then pelleted at 1000 RPM's. The cell pellet is reconstituted in membrane preparation buffer (20 mM HEPES, 6 mM MgCl2 and 1 mM EGTA, protease inhibitor tablets, pH 7.4) and placed in a cell disruption vessel at 1000 PSI for 30 minutes on ice. The pressurized contents are then released and spun down at 1000 RPMs and the supernatant is collected and further centrifuged at 15,000 RPMs to pellet the membranes. The membrane pellet is resuspended in membrane preparation buffer, snap frozen and stored at −80° C. for later use.
[…] Assay contents are then filtered through unifilter GF/C microplates and washed with 9×400 μl of cold wash buffer (25 mM HEPES, 5 mM MgCl2, 1 mM CaCl2), 500 mM NaCl, 0.1% Tween-20, pH 7.4). Assay plates are read using a Top Count NXT and Ki values for compounds are determined using a GraphPad Prism 6 non-linear regression analysis.
`CCC(=O)NCCNC(=O)/N=C(/N)NCCC[C@@H](NC(=O)C(c1ccccc1)c1cccc(OCCCCNC(=O)CCOCCNC(=O)CN2CCN(CC(=O)O)CCN(CC(=O)O)CCN(CC(=O)O)CC2)c1)C(=O)NCc1ccc(O)cc1` (single isomer, unassigned) [Compound 108B]: the pKi was over 8.00.

Take `CCC(=O)NCCNC(=O)/N=C(/N)NCCC[C@@H](NC(=O)C(c1ccccc1)c1cccc(OCCCCNc2c(NCCNC(=O)CN3CCN(CC(=O)O)CCN(CC(=O)O)CCN(CC(=O)O)CC3)c(=O)c2=O)c1)C(=O)NCc1ccc(O)cc1` (single isomer, unassigned) [Compound 111A]: the pKi was over 8.00. The same measure, in the same setting: with `CCC(=O)NCCNC(=O)/N=C(/N)NCCC[C@@H](NC(=O)C(c1ccccc1)c1cccc(OCCOCCOCCOCCOCCNC(=O)CN2CCN(CC(=O)O)CCN(CC(=O)O)CCN(CC(=O)O)CC2)c1)C(=O)NCc1ccc(O)cc1` (single isomer, unassigned) [Compound 101B] the figure was over 8.00; with `CCC(=O)NCCNC(=O)/N=C(/N)NCCC[C@@H](NC(=O)C(c1ccccc1)c1cccc(OCCCCNC(=O)CNC(=O)[C@@H](CC(N)=O)NC(=O)CN2CCN(CC(=O)O)CCN(CC(=O)O)CCN(CC(=O)O)CC2)c1)C(=O)NCc1ccc(O)cc1` (single isomer, unassigned) [Compound 112B], over 8.00. `CCC(=O)NCCNC(=O)/N=C(/N)NCCC[C@@H](NC(=O)C(c1ccccc1)c1ccc(NCCCNC(=O)CCOCCOCCNC(=O)CN2CCN(CC(=O)O)CCN(CC(=O)O)CCN(CC(=O)O)CC2)cc1)C(=O)NCc1ccc(O)cc1` (single isomer, unassigned) [Compound 103A]: the pKi was 7.00 to 8.00. As for `CCC(=O)NCCNC(=O)/N=C(/N)NCCC[C@@H](NC(=O)C(c1ccccc1)c1cccc(OCCCCNC(=O)CCC(=O)N(CC(=O)O)C2CCN(C(=O)CN3CCN(CC(=O)O)CCN(CC(=O)O)CCN(CC(=O)O)CC3)CC2)c1)C(=O)NCc1ccc(O)cc1` (single isomer, unassigned) [Compound 117A], the pKi was 7.00 to 8.00.

On to `CCC(=O)NCCNC(=O)/N=C(/N)NCCC[C@@H](NC(=O)C(c1ccccc1)c1cccc(OCCCCNC(=O)CC[C@@H](NC(=O)CN2CCN(CC(=O)O)CCN(CC(=O)O)CCN(CC(=O)O)CC2)C(=O)O)c1)C(=O)NCc1ccc(O)cc1` (single isomer, unassigned) [Compound 110B], for which the pKi is over 8.00.

The assay is the same for the next values; noted with them: data obtained after 120 minutes at rt; SK-N-MC membranes; [125I]-Peptide YY; read-out: hNPY.R binding Ki* ††.
In the case of `CCC(=O)NCCNC(=O)/N=C(/N)NCCC[C@@H](NC(=O)C(c1ccccc1)c1ccc(NCCNC(=O)[C@H](N)CCCNC(=O)CN2CCN(CC(=O)O)CCN(CC(=O)O)CCN(CC(=O)O)CC2)cc1)C(=O)NCc1ccc(O)cc1` (single isomer, unassigned) [Compound 143A], the pKi is over 8.00. With `CCC(=O)NCCNC(=O)/N=C(/N)NCCC[C@@H](NC(=O)C(c1ccccc1)c1ccc(NCCNC(=O)[C@H](N)CCCNC(=O)CN2CCN(CC(=O)O)CCN(CC(=O)O)CCN(CC(=O)O)CC2)cc1)C(=O)NCc1ccc(O)cc1` (single isomer, unassigned) [Compound 144B], the pKi is over 8.00. With `CCC(=O)NCCNC(=O)/N=C(/N)NCCC[C@@H](NC(=O)C(c1ccccc1)c1cccc(OCCCCNC(=O)[C@@H](Cc2ccc(-c3ccccc3)cc2)NC(=O)CCNC(=O)CN2CCN(CC(=O)O)CCN(CC(=O)O)CCN(CC(=O)O)CC2)c1)C(=O)NCc1ccc(O)cc1` (stereo partly drawn) [Compound 149, 2,2′,2″-(10-(2-((3-(((2R)-3-([1,1′-biphenyl]-4-yl)-1-((4-(3-((4R,Z)-9-amino-4-((4-hydroxybenzyl)carbamoyl)-2,11,16-trioxo-1-phenyl-3,8,10,12,15-pentaazaoctadec-9-en-1-yl)phenoxy)butyl)amino)-1-oxopropan-2-yl)amino)-3-oxopropyl)amino)-2-oxoethyl)-1,4,7,10-tetraazacyclododecane-1,4,7-triyl)triacetic acid], the pKi is over 8.00. With `CCC(=O)NCCNC(=O)/N=C(/N)NCCC[C@@H](NC(=O)C(c1ccccc1)c1cccc(OCCCCNC(=O)CCOCCOCCOCCOCCOCCOCCOCCOCCOCCOCCOCCOCCOCCOCCOCCOCCOCCOCCOCCOCCOCCOCCOCCOCCOCCOCCOCCOCCOCCOCCOCCOCCOCCOCCOCCOCCNC(=O)CN2CCN(CC(=O)O)CCN(CC(=O)O)CCN(CC(=O)O)CC2)c1)C(=O)NCc1ccc(O)cc1` (stereo partly shown) [Compound 126], the pKi was 7.00 to 8.00. Consider `CCC(=O)NCCNC(=O)/N=C(/N)NCCC[C@@H](NC(=O)C(c1ccccc1)c1ccc(NCCCNC(=O)[C@H](N)CCCNC(=O)CN2CCN(CC(=O)O)CCN(CC(=O)O)CCN(CC(=O)O)CC2)cc1)C(=O)NCc1ccc(O)cc1` (single isomer, unassigned) [Compound 135B], for which the pKi was over 8.00.

Take `CCC(=O)NCCNC(=O)/N=C(/N)NCCC[C@@H](NC(=O)C(c1ccccc1)c1cccc(OCCCCNC(=O)NNC(=O)CCNC(=O)CN2CCN(CC(=O)O)CCN(CC(=O)O)CCN(CC(=O)O)CC2)c1)C(=O)NCc1c(F)cc(O)cc1F` (single isomer, unassigned) [Compound 166]: the pKi is over 8.00. On to `CCCCCCCCCCCCCCCC(=O)N[C@@H](CCC(=O)N[C@@H](CCCCNC(=O)CN1CCN(CC(=O)O)CCN(CC(=O)O)CCN(CC(=O)O)CC1)C(=O)NCCCCOc1cccc(C(C(=O)N[C@H](CCCN/C(N)=N\C(=O)NCCNC(=O)CC)C(=O)NCc2ccc(O)cc2)c2ccccc2)c1)C(=O)O` (stereo partly drawn) [Compound 122, (2S)-4-{[(1S)-1-({4-[3-({[(1R)-4-{[(Z)-amino({[(2-propanamidoethyl)-carbamoyl]imino})methyl]amino}-1-{[(4-hydroxyphenyl)methyl]carbamoyl}butyl]-carbamoyl}(phenyl)methyl)phenoxy]butyl}carbamoyl)-5-{2-[4,7,10-tris(carboxymethyl)-1,4,7,10-tetraazacyclododecan-1-yl]acetamido}pentyl]carbamoyl}-2-hexadecanamidobutanoic acid], for which the pKi is over 8.00. For `CCC(=O)NCCNC(=O)/N=C(/N)NCCC[C@@H](NC(=O)C(c1ccccc1)c1cccc(OCCCCNc2c(NCCNC(=O)[C@@H](CN)NC(=O)CN3CCN(CC(=O)O)CCN(CC(=O)O)CCN(CC(=O)O)CC3)c(=O)c2=O)c1)C(=O)NCc1ccc(O)cc1` (single isomer, unassigned) [Compound 115B], the pKi is over 8.00.

Regarding `CCC(=O)NCCNC(=O)/N=C(/N)NCCC[C@@H](NC(=O)C(c1ccccc1)c1cccc(OCCCCNC(=O)CCNC(=O)CN2CCN(CC(=O)O)CCN(CC(=O)O)CCN(CC(=O)O)CC2)c1)C(=O)NCc1c(F)cc(O)cc1F` (single isomer, unassigned) [Compound 162B], the pKi was over 8.00. With `CCC(=O)NCCNC(=O)/N=C(/N)NCCC[C@@H](NC(=O)C(c1ccccc1)c1ccc(NCCCNC(=O)CCCCCNC(=O)CN2CCN(CC(=O)O)CCN(CC(=O)O)CCN(CC(=O)O)CC2)cc1)C(=O)NCc1ccc(O)cc1` (single isomer, unassigned) [Compound 154], the pKi was over 8.00.

`CCC(=O)NCCNC(=O)/N=C(/N)NCCC[C@@H](NC(=O)C(c1ccccc1)c1cccc(OCCCCNC(=O)[C@@H](CCCN)NC(=O)CCNC(=O)CN2CCN(CC(=O)O)CCN(CC(=O)O)CCN(CC(=O)O)CC2)c1)C(=O)NCc1ccc(O)cc1` (single isomer, unassigned) [Compound 147B]: the pKi is over 8.00.

`CCC(=O)NCCNC(=O)/N=C(/N)NCCC[C@@H](NC(=O)C(c1ccccc1)c1cccc(OCCCCNC(=O)CCC(=O)N(CC(=O)O)C2CCN(C(=O)CN3CCN(CC(=O)O)CCN(CC(=O)O)CCN(CC(=O)O)CC3)CC2)c1)C(=O)NCc1ccc(O)cc1` (single isomer, unassigned) [Compound 117A]: the pKi was 7.00 to 8.00. For the compound `CCC(=O)NCCNC(=O)/N=C(/N)NCCC[C@@H](NC(=O)C(c1ccccc1)c1ccc(NCCCNC(=O)[C@H](N)CCCNC(=O)[C@@H](Cc2ccc(-c3ccccc3)cc2)NC(=O)CN2CCN(CC(=O)O)CCN(CC(=O)O)CCN(CC(=O)O)CC2)cc1)C(=O)NCc1ccc(O)cc1` (stereo partly drawn) [Compound 134B-In, indium (III) 2,2′,2″-(10-(2-(((R)-3-([1,1′-biphenyl]-4-yl)-1-(((R)-4-amino-5-((3-((4-((4R,Z)-9-amino-4-((4-hydroxybenzyl)carbamoyl)-2,11,16-trioxo-1-phenyl-3,8,10,12,15-pentaazaoctadec-9-en-1-yl)phenyl)amino)propyl)amino)-5-oxopentyl)amino)-1-oxopropan-2-yl)amino)-2-oxoethyl)-1,4,7,10-tetraazacyclododecane-1,4,7-triyl)triacetic acid], the pKi is over 8.00. Consider `CCC(=O)NCCNC(=O)/N=C(/N)NCCC[C@@H](NC(=O)C(c1ccccc1)c1ccc(NCCCNC(=O)[C@H](N)CCCNC(=O)CN2CCC(NC(=O)CN3CCN(CC(=O)O)CCN(CC(=O)O)CCN(CC(=O)O)CC3)CC2)cc1)C(=O)NCc1ccc(O)cc1` (single isomer, unassigned) [Compound 146A], for which the pKi is over 8.00. Regarding `CCC(=O)NCCNC(=O)/N=C(/N)NCCC[C@@H](NC(=O)C(c1ccccc1)c1cccc(OCCCCNC(=O)CONC(=O)CCNC(=O)CN2CCN(CC(=O)O)CCN(CC(=O)O)CCN(CC(=O)O)CC2)c1)C(=O)NCc1c(F)cc(O)cc1F` (single isomer, unassigned) [Compound 167], the pKi is over 8.00.
